Measurements published in patent US20250262172A1 (ANTECIP BIOVENTURES II LLC, priority 2022, published 2025).

Tests used:
[1] = Concomitant use of the subject combination with strong CYP2D6 inhibitors; format: in vivo, human; settings: subject combination with one or more strong CYP2D6 inhibitors
From the text: In some embodiments, the subject composition may be co-administered with one or more strong Inhibitors of CYP2D6. […] It is, thus, recommended to monitor patients for adverse effects or adverse reactions potentially attributable to dextromethorphan, such as somnolence and dizziness.

[2] = CYP2D6 inhibited by quinidine; vs patients who were not CYP2D6 poor metabolizers; cited from earlier work
[3] = 7 days of twice-daily 30 mg dextromethorphan and 30 mg quinidine; cited from earlier work
[4] = Steady state pharmacokinetic data in 12 poor metabolizers in efficacy clinical trials (Example 2); settings: 105 mg bupropion hydrochloride and 45 mg dextromethorphan hydrobromide twice a day
[5] = Clinical trials of the bupropion and dextromethorphan combination, poor metabolizers vs other patients
[6] = Pharmacokinetics in 3 CYP2D6 poor metabolizers given bupropion hydrochloride 105 mg and dextromethorphan hydrobromide 45 mg twice a day (Example 1); settings: 3 poor metabolizers; 105 mg bupropion hydrochloride and 45 mg dextromethorphan hydrobromide twice a day
[7] = Effect of CYP2D6 poor metabolizer status on pharmacokinetics of the 45 mg dextromethorphan hydrobromide / 105 mg bupropion hydrochloride tablet (Example 3, FIG. 1); settings: CYP2D6 poor metabolizers vs extensive or ultra-extensive metabolizers; after 8 days of twice daily dosing of the tablet
[8] = powder; cited from earlier work

| SMILES | plasma concentrations of dextromethorphan [1] | AUC0-12 of dextromethorphan higher for CYP2D6 poor metabolizers [2] | Cmax of dextromethorphan higher for poor metabolizers [2] | increase in AUC0-12 of poor metabolizers compared to extensive metabolizers [3] [fold] | increase in Cmax of poor metabolizers compared to extensive metabolizers [3] | plasma concentrations of dextromethorphan vs exposures for non-poor metabolizer [4] | Cmax and AUC of dextromethorphan in poor metabolizers vs patients who are not poor metabolizers [5] | increase in dextromethorphan AUC0-12 compared to extensive metabolizers [6] [fold] | increase in dextromethorphan Cmax compared to extensive metabolizers [6] [fold] | increase in dextromethorphan AUC0-12 (GMR) [7] [fold] | increase in dextromethorphan Cmax (GMR) [7] [fold] | solubility in water [8] |
| --- | --- | --- | --- | --- | --- | --- | --- | --- | --- | --- | --- | --- |
| COc1ccc2c(c1)[C@]13CCCC[C@@H]1[C@H](C2)N(C)CC3 [dextromethorphan] | increases | about 46% | about 40% | ~1.46 | about 1.43 fold | generally higher | significantly higher | ~3.4 | ~3 | 3.40 | 3.00 |  |
| CC(NC(C)(C)C)C(=O)c1cccc(Cl)c1.Cl (racemic) [Bupropion hydrochloride, (±)-1-(3-chlorophenyl)-2-[(1,1-dimethylethyl)amino]-1-propanone hydrochloride] |  |  |  |  |  |  |  |  |  |  |  | highly soluble |
| Br.COc1ccc2c(c1)[C@]13CCCC[C@@H]1[C@H](C2)N(C)CC3 [Dextromethorphan hydrobromide, morphinan, 3-methoxy-17-methyl-, (9α, 13α, 14α), hydrobromide monohydrate] |  |  |  |  |  |  |  |  |  |  |  | sparingly soluble |
